A word on the IC50: it is the midpoint of a concentration-inhibition curve. Usually melting point stands for the temperature, or range, at which the solid turns liquid.

The record followed here is patent publication US7674795B2, “Fluorene derivatives, composition containing said derivatives and the use thereof” (Aventis Pharma SA, priority 2005, dated 2010).

Series [1] deals with Hsp82 (Saccharomyces cerevisiae, UniProt P02829). The series can be described thus: PK/LDH enzyme coupling test of the ATPase activity of Hsp82 (NADH decrease at 340 nm). The format is biochemical. The following applies: 1 μM Hsp82, 250 μM ATP, 37° C., pyruvate kinase/lactate dehydrogenase coupling, read-out: Hsp82 ATPase IC50. Summed up:
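Yeast Hsp82 ATPase was coupled to PK/LDH, with ADP formation followed continuously as NADH loss at 340 nm at 37 °C. The mixture was preincubated 30 min at 37 °C, and the reaction was started with compound at variable concentrations plus Hsp82 at 1 μM. Initial rates (μM ADP/min) came from the tangent slope at origin, expressed as % inhibition.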

Sequence of Hsp82 (P02829 whole entry): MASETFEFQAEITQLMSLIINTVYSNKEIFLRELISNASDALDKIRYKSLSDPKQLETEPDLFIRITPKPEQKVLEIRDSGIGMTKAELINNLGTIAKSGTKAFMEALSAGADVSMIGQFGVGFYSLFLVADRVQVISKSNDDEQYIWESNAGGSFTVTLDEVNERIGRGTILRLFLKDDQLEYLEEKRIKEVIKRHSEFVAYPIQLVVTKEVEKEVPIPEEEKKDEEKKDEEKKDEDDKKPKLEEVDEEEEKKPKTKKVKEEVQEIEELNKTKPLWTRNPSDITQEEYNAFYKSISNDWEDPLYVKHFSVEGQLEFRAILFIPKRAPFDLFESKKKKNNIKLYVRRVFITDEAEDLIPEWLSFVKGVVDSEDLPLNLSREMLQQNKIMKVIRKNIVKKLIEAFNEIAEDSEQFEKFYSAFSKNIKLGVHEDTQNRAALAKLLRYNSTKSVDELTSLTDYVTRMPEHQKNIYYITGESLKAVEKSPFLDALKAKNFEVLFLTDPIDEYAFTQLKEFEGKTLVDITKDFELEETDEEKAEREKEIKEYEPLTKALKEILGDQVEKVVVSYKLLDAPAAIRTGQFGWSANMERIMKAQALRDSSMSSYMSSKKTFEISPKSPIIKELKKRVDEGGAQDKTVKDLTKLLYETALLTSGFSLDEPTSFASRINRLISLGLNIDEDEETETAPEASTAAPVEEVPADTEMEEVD

`O=C(NC1c2ccccc2-c2c(-c3nc4ccncc4[nH]3)cccc21)c1c[nH]c2ncccc12` (racemic) [Example 99, [4-(3H-imidazo[4,5-c]pyridin-2-yl)-9H-fluoren(R,S)-9-yl]amide of 1H-pyrrolo[2,3-b]pyridine-3-carboxylic acid]: the melting point was 225 °C (dec.). Moreover, the half-maximal inhibitory concentration (IC50) in series [1] was under 1 µM.
Taken in the same sequence, the figures for `Cc1cc(C(=O)NC2c3ccccc3-c3c(-c4nc5ccncc5[nH]4)cccc32)cc(Cl)n1` (racemic) [Example 123, 2-chloro-N-[4-(3H-imidazo[4,5-c]pyridin-2-yl)-9H-fluoren-9(R,S)-yl]-6-methyl-isonicotinamide] were 250 °C and 1 to 10 µM.
Take `O=C(NC1c2ccccc2-c2c(-c3nc4ccncc4[nH]3)cccc21)c1cccc2[nH]ncc12` (racemic) [Example 111, [4-(3H-imidazo[4,5-c]pyridin-2-yl)-9H-fluoren-9(R,S)-yl]amide of 1H-indazole-4-carboxylic acid]: the melting point was 230 to 235 °C. Further, the concentration for half-maximal inhibition (IC50) in series [1] is under 1 µM.
